Patent US20090158465A1, “TRANSGENIC PLANTS WITH ENHANCED DROUGHT-RESISTANCE AND METHOD FOR PRODUCING THE PLANTS” (priority 2006, published 2009)

Legend:
[1] = system: abo1 mutant and wild-type seedlings; assay: Oxidative stress: seedlings exposed to Rose Bengal; assay type: in vivo, Arabidopsis thaliana; conditions: 10 μM Rose Bengal for 3 days
Protocol: (§1) The leaves taken from plants grown in soil were treated with 1 μM MV. […] Electrolyte leakage (conductivity) is often used as an indicator of tissue damage. […] Rose Bengal is another reagent that generates H2O2 when exposed to the light. […] This was supported by ion leakage measurements at different time points (FIG. 4H).

[2] = system: abo1-1 and wild-type leaves; assay: Oxidative stress: leaves from soil-grown plants treated with MV or H2O2 (damage, ion leakage); set-up: species or system Arabidopsis thaliana
Protocol: as §1

[3] = system: abo1-1 and wild-type seedlings; assay: Oxidative stress: seedlings on MS medium supplemented with MV; assay type: in vivo, Arabidopsis thaliana
From the text: ABA can induce the expression of genes encoding antioxidant enzymes (Guan, L. et al., Plant Physiol. 117:217-224 (1998); Zhu, D. et al., Plant Physiol. 106:173-178 (1994)). ABA also induces the production of reactive oxygen species that serve as a second messenger in ABA signaling in guard cells (Jiang, M. et al., Plant Cell Physiol. 42:1265-127 (2001); Pei, Z. M. et al., Nature 406:731-73 (2000)). In order to test whether the ABA sensitivity of abo1-1 seedlings might be connected with reactive oxygen species, we analyzed the response of abo1-1 mutant plants to oxidative stress. Methyl viologen (MV) (paraquat) inhibits electron transport in the reduction of NADP to NADPH during photosynthesis and thus enhances H2O2 production in chloroplasts under light (Suntres, Z. E. Toxicology 180:65-7 (2002)). Seedlings grown on MS medium for 5 days were transferred to new MS medium supplemented with different concentrations of MV. The abo1-1 seedlings grew well on MS medium supplemented with 3 μM MV, while more than 50% of wild-type seedlings were killed at this concentration (FIG. 4A) after a 5-day treatment. […] Seed germination was inhibited to similar extents for both abo1-1 and wild-type plants by various concentrations of MV. After radicles emerged, the young seedlings were more sensitive to MV.

[4] = system: stomata (guard cells) of abo1-1 and wild-type plants; assay: Stomatal aperture (closing) bioassay with ABA; assay type: cell-based, Arabidopsis thaliana
Protocol: Stomatal closing assays were conducted as described previously (Pei, Z. M. et al., Plant Cell 9:409-42 (1997)). Rosette leaves were floated in solutions containing 50 μM CaCl2, 10 mM KCl, 10 mM MES [2-(N-morpholino)ethanesulfonic acid]-Tris, pH 6.15, and exposed to light (150 μmol m-2 s-1) for 2 h. […] After ABA treatment for 2 h, stomatal apertures were measured as described previously (Pei, Z. M. et al., Plant Cell 9:409-42 (1997)). Values are means ±standard errors (SE) (n=30). Significance (P<0.05) was assessed by Student's t test.
In order to determine the cause of the drought-resistant phenotype of the abo1-1 mutant, we performed experiments to determine whether this phenotype is related to increased sensitivity of stomatal closure to ABA. abo1-1 and wild-type plants were exposed to high humidity for 12 h to open stomata fully. […]

[5] = system: abo1-1 and wild-type seedlings; assay: Seedling growth on MS medium containing ABA; assay type: in vivo, Arabidopsis thaliana; conditions: abo1-1 versus wild type; 5-day-old seedlings transferred to different concentrations of ABA, scored one week later
Protocol: Plants were grown in 340-ml pots filled with a mixture of peat/forest soil and vermiculite (3:1) in a greenhouse at 22° C., with light intensity of 50 μmol m-2 s-1 and 70% rH under long-day conditions (16-h-light/8-h-dark cycle). Seedlings were germinated and grown on Murashige and Skoog (MS) medium (M5519; Sigma) supplemented with 3% (wt/vol) sucrose and 0.8% agar under the same growth conditions.
We also analyzed the ABA sensitivities of abo1-plants in seed germination and seedling growth. Seedlings grown for 5 days on MS medium were transferred to MS media containing different concentrations of ABA. One week later, the plants were scored for visible changes. Without ABA, the root growth of abo1-1 plants was slower than that of wild-type plants but they had similar levels of shoot growth. […] The postgermination growth of abo1-1 seedlings was more impaired than that of the wild type, as indicated by the ratio of seedlings with green cotyledons to the total number of seedlings after germination for 1 week (FIG. 3D).

With O=C([O-])c1c(Cl)c(Cl)c(Cl)c(Cl)c1-c1c2cc(I)c(=O)c(I)c-2oc2c(I)c([O-])c(I)cc12.[Na+].[Na+] [Rose Bengal] the cotyledon damage ([1]; abo1 mutant) was “no chlorotic symptom observed” and the cotyledon damage ([1]; wild-type seedlings) was “severely damaged the cotyledons”.
For OO [H2O2], the leaf damage ([2]; wild-type leaves versus abo1-1 leaves, 10 mM H2O2 for 5 days) was “more damaged than abo1-1 leaves”.
With C[n+]1ccc(-c2cc[n+](C)cc2)cc1 [MV, Methyl viologen] the “cotyledons affected (greening prevented)” value ([3]; abo1-1, 1.2 μM MV for 10 days) was 40%, the seedling growth ([3]; abo1-1 seedlings, 3 μM MV, 5-day treatment) was “grew well” and the seedling survival ([3]; abo1 mutant seedlings, 6 μM MV) was “still survived”. The “seedlings with cotyledon greening prevented” value ([3]; wild-type seedlings, 1.2 μM MV for 10 days) was “more than 90%”, the seedlings killed ([3]; wild-type seedlings, 3 μM MV, 5-day treatment) was “more than 50%” and the seedling survival ([3]; wild-type seedlings, 4 μM MV) was “completely killed all”. For the same compound, the “ion leakage (electrolyte leakage, conductivity)” value ([2]; abo1-1 leaves versus wild type, 1 μM MV) was “substantially less ion leakage than the wild-type leaves”, the leaf damage ([2]; abo1-1 leaves, 1 μM MV, after 5 days) was “enhanced anthocyanin pigmentation but without any apparent chlorotic symptom” and the leaf damage ([2]; wild-type leaves, 1 μM MV, after 5 days) was “severely damaged and displayed chlorotic spots or bleaching”.
In the case of CC1=CC(=O)CC(C)(C)[C@@]1(O)/C=C/C(C)=C\C(=O)O [ABA, abscisic acid], the stomatal closure ([4]; abo1-1 plants, 1 μM ABA for 2 h) was “almost completely closed”, the “ABA concentration enhancing stomatal closure in abo1-1 to the same degree as 10 μM ABA in the wild type” value ([4]; abo1-1 plants, preopened stomata, FIG. 2B) was 0.5 µM and the stomatal closure ([4]; wild-type plants, 20 μM ABA, same treatment time (2 h), data not shown) was “did not completely close”. The “root and shoot growth” value [5] was “more inhibited than that of the wild type”.
